The source made the active and inactive calls. The calls are words filed in the database; no cut-off is given here.
Key:
PC-9 = test: Cytotoxicity against human PC-9 cells assessed as reduction in cell viability incubated for 24 hrs by MTT assay; assay type: functional, cell-based; details: PC-9, 24 h
NCI-H460 = test: Cytotoxicity against human NCI-H460 cells assessed as reduction in cell viability incubated for 24 hrs by MTT assay; assay type: functional, cell-based; details: NCI-H460, 24 h
Quadruplex DNA [1] = test: Binding affinity to wildtype Tel26 G4 DNA (5'-TTAGGGTTAGGGTTAGGGTTAGGGTT-3') (unknown origin) at 10:1 compound:DNA ratio incubated for 30 mins by ESI-MS analysis; assay type: nucleic-acid assay
NCI-H1975 = test: Cytotoxicity against human NCI-H1975 cells assessed as reduction in cell viability incubated for 24 hrs by MTT assay; assay type: functional, cell-based; details: NCI-H1975, 24 h
[2] = Cytotoxicity against human BEAS-2B cells assessed as reduction in cell viability incubated for 24 hrs by MTT assay; assay type: toxicity, cell-based
NCI-H358 = test: Cytotoxicity against human NCI-H358 cells assessed as reduction in cell viability incubated for 24 hrs by MTT assay; assay type: functional, cell-based; details: NCI-H358, 24 h
Quadruplex DNA [3] = test: Binding affinity to Tel23 G4 DNA (unknown origin) in PBS at pH 7.1 at 1.5 mM by wLOGSY analysis; assay type: nucleic-acid assay
A549 = test: Cytotoxicity against human A549 cells assessed as reduction in cell viability incubated for 24 hrs by MTT assay; assay type: functional, cell-based; details: A549, 24 h
NCI-H1650 = test: Cytotoxicity against human NCI-H1650 cells assessed as reduction in cell viability incubated for 24 hrs by MTT assay; assay type: functional, cell-based; details: NCI-H1650, 24 h

Activity (Quadruplex DNA [1]): Active
Activity (Quadruplex DNA [3]): Active
Structure (SMILES): OCCN1CCN(CC#Cc2c3ccccc3c(C#CCN3CCN(CCO)CC3)c3ccccc23)CC1
IC50 (PC-9): 2.5 µM
IC50 (NCI-H460): 1.91 µM
IC50 (NCI-H1975): 3.22 µM
IC50 at 24 h [2]: 1.07 µM
IC50 (NCI-H358): 6.21 µM
IC50 (A549): 5.2 µM
IC50 (NCI-H1650): > 10 µM

Source: ChEMBL document CHEMBL6071164, “9,10-Bis[(4-(2-hydroxyethyl)piperazine-1-yl)prop2-yne-1-yl]anthracene: G-Quadruplex Selectivity and Anticancer Activity” (ACS Med Chem Lett, 2024)
